Test results published in patent publication US12129312B2, “Peptide compound, application thereof and composition containing same” (priority 2017, dated 2024).
Read-outs that look alike come from different tables or passages of the source. Numbered stars: 1 amine (or outer) side, 2 acyl side, 3 side chain; on linkers, the order of the positions; unused ones are H or OH. Square brackets hold non-standard residues; d marks the D form. Peptide text beside a SMILES is read from it. Bpa = N[C@@H](Cc1ccc(C(=O)c2ccccc2)cc1)C(=O)O; X5 = O=C([C@H]1c2ccccc2CCN1[*:1])[*:2]; 1Nal = N[C@@H](Cc1cccc2ccccc12)C(=O)O; 2Nal = N[C@@H](Cc1ccc2ccccc2c1)C(=O)O; dNMeY = CN[C@H](Cc1ccc(O)cc1)C(=O)O; Tic = O=C(O)[C@@H]1Cc2ccccc2CN1; NMeL = CN[C@@H](CC(C)C)C(=O)O; NMehSer = CN[C@@H](CCO)C(=O)O; NMeS = CN[C@@H](CO)C(=O)O; Aze = O=C(O)[C@@H]1CCN1

Biological target: T1, human Chemokine like receptor 1 (Homo sapiens, UniProt Q99788)
T1 construct: host or cells: U2OS (Tango CMKLR1-bla U2OS)
T1 sequence (Q99788 1-373): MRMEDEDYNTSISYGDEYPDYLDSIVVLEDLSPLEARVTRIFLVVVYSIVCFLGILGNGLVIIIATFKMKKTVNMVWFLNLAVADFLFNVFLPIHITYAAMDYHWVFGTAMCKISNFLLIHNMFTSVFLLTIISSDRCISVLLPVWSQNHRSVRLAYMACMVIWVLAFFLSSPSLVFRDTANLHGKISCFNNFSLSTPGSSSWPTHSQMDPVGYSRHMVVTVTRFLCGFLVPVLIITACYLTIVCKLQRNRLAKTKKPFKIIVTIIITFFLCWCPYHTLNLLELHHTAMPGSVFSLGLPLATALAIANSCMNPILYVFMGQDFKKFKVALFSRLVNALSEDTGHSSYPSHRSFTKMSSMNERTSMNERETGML
Experiment: Activation of Tango CMKLR1-bla U2OS cells (beta-lactamase FRET reporter)
Format: cell-based
In short: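 Agonist mode in Tango CMKLR1-bla U2OS cells, 10000 cells/well seeded overnight, then 10-point 3-fold compound dilutions from 10 mM DMSO stock applied for 4 h at 37 °C, 5% CO2. Beta-lactamase reporter read with CCF4-AM FRET substrate; peptide (D-Tyr)-Phe-Leu-Pro-(D-Ser)-Gln-Phe-(D-Ala)-Tic-Ser served as positive control.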

[1] = determination by the method of Effect Embodiment 1, read-out: EC50

## CC(C)C[C@@H](C(=O)N1CCC[C@H]1C(=O)N[C@H](CO)C(=O)N[C@@H](CCC(N)=O)C(=O)N[C@@H](Cc1ccccc1)C(=O)N[C@H](C)C(=O)N1CCc2ccccc2[C@@H]1C(=O)N[C@@H](CO)C(=O)O)N(C)C(=O)[C@H](Cc1ccccc1)NC(=O)[C@H](N)Cc1ccc(O)cc1 [YW-153, (D-Tyr)-Phe-(NMe-Leu)-Pro-(D-Ser)-Gln-Phe-(D-Ala)-D-Ti1c-Ser-OH] (H-[dY]F[NMeL]P[dS]QF[dA][X5]S-OH)
[1]
  EC50: 8.5 nM

## CC(C)C[C@@H](C(=O)N1CCC[C@H]1C(=O)N[C@H](CO)C(=O)N[C@@H](CCC(N)=O)C(=O)N[C@@H](Cc1ccccc1)C(=O)N[C@H](C)C(=O)N1Cc2ccccc2C[C@H]1C(=O)N(C)[C@@H](CCO)C(=O)O)N(C)C(=O)[C@H](Cc1ccccc1)NC(=O)[C@H](N)Cc1ccc(O)cc1 [YW-177, (D-Tyr)-Phe-(NMe-Leu)-Pro-(D-Ser)-Gln-Phe-(D-Ala)-Tic-(NMe-HoSer)-OH] (H-[dY]F[NMeL]P[dS]QF[dA][Tic][NMehSer]-OH)
[1]
  EC50: 25 nM

## CC(C)C[C@@H](C(=O)N1CCC[C@H]1C(=O)N[C@H](CO)C(=O)N[C@@H](CCC(N)=O)C(=O)N[C@@H](Cc1ccccc1)C(=O)N[C@H](C)C(=O)N1Cc2ccccc2C[C@H]1C(=O)N[C@@H](CO)C(=O)O)N(C)C(=O)[C@H](Cc1ccc2ccccc2c1)NC(=O)[C@H](N)Cc1ccc(O)cc1 [YW-200, (D-Tyr)-2Nal-(NMe-Leu)-Pro-(D-Ser)-Gln-Phe-(D-Ala)-Tic-Ser] (H-[dY][2Nal][NMeL]P[dS]QF[dA][Tic]S-OH)
  EC50: 19 nM

## CC(C)C[C@H](NC(=O)[C@H](Cc1ccccc1)NC(=O)[C@H](N)Cc1ccc(O)cc1)C(=O)N1CCC[C@H]1C(=O)N[C@H](CO)C(=O)N[C@@H](CCC(N)=O)C(=O)N[C@@H](Cc1ccc(C(=O)c2ccccc2)cc1)C(=O)N[C@H](C)C(=O)N1Cc2ccccc2C[C@H]1C(=O)N[C@@H](CO)C(=O)O [YW-119, (D-Tyr)-Phe-Leu-Pro-(D-Ser)-Gln-Bpa-(D-Ala)-Tic-Ser-OH] (H-[dY]FLP[dS]Q[Bpa][dA][Tic]S-OH)
[1]
  EC50: 9.9 nM

## CN[C@H](Cc1ccc(O)cc1)C(=O)N[C@@H](Cc1ccccc1)C(=O)N(C)[C@@H](CC(C)C)C(=O)N1CCC[C@H]1C(=O)N[C@H](CO)C(=O)N[C@@H](CCC(N)=O)C(=O)N[C@@H](Cc1cccc2ccccc12)C(=O)N[C@H](C)C(=O)N1Cc2ccccc2C[C@H]1C(=O)N(C)[C@@H](CO)C(=O)O [YW-162, (D-NMe-Tyr)-Phe-(NMe-Leu)-Pro-(D-Ser)-Gln-1Nal-(D-Ala)-Tic-NMeSer-OH] (H-[dNMeY]F[NMeL]P[dS]Q[1Nal][dA][Tic][NMeS]-OH)
[1]
  EC50: 2.6 nM

## CC(C)C[C@H](NC(=O)[C@H](Cc1ccccc1)NC(=O)[C@H](N)Cc1ccc(O)cc1)C(=O)N1CC[C@H]1C(=O)N[C@H](CO)C(=O)N[C@@H](CCC(N)=O)C(=O)N[C@@H](Cc1ccccc1)C(=O)N[C@H](C)C(=O)N1Cc2ccccc2C[C@H]1C(=O)N[C@@H](CO)C(=O)O [YW-115, (D-Tyr)-Phe-Leu-Aze-(D-Ser)-Gln-Phe-(D-Ala)-Tic-Ser-OH] (H-[dY]FL[Aze][dS]QF[dA][Tic]S-OH)
[1]
  EC50: 190 nM
